Tests used:
Type in all cases: cell-based
[1] = test system: primary cultured mouse lung endothelial cells; assay: H2O2 on primary cultured mouse lung endothelial cells (TEER, AKT phosphorylation); settings: H2O2 at low concentrations
[2] = test system: mouse pulmonary endothelial cells; assay: TEER of mouse endothelial cells co-cultured with neutrophils; settings: fMLP-stimulated neutrophils; catalase 100 U/ml
Description: ECIS 8W10E+ arrays (Applied BioPhysics) were coated with 10 μg/ml of poly-D-lysine (PDL) and washed with sterile water. Complete EBM-2 media (300 μl) was added to each well for a quick impedance background check. Subsequently, immortalized mouse pulmonary endothelial cells were seeded in a density of 60,000 cells/well in 300 μl EBM-2 medium in the coated arrays and incubated them at 37° C. in a CO2 incubator. Electrical resistance of the cell layer was recorded continuously on an ECIS system (Applied BioPhysics) until a stable resistance of approximately 600-700 ohms was achieved, after which media were removed from wells and replaced with 100 μl of assay buffer (Hanks buffer with Ca^2+ and Mg^2+0.25% BSA). Cells were allowed to re-equilibrate at 37° C. for 2 hours, before 1 μl of SOD (60 U/ml), catalase (100 U/ml), or mock were added to wells for 30 min followed by addition of 50 μl of mouse neutrophils in assay buffer containing 5 μM fMLP. Data were collected real-time throughout the experiment. All ECIS measurements were analyzed at an AC frequency of 4 kHz, which was identified as the most sensitive frequency for this cell type by frequency scans along an entire frequency range (1 kHz-64 kHz). The TEER values were normalized against those co-cultured with WT neutrophils treated with mock.

[3] = test system: mouse primary lung endothelial cells; assay: Bi-layer co-culture of neutrophils with endothelial cells, AKT phosphorylation; settings: fMLP-stimulated neutrophils; SOD 60 U/ml, catalase 100 U/ml
Description: Mouse primary lung endothelial cells (MLEC) were first plated on the outside of the polycarbonate membrane (25,000 cells/cm^2) of the Transwell inserts (24-well type, 0.4-μm pore size, Corning, Inc. 353095), and placed upside down in the wells of the culture plate. After the cells had adhered, the Transwell inserts were inverted and reinserted into the wells of the plate. The medium was replaced 24 h after seeding with serum-free medium. SOD (60 U/ml), catalase (100 U/ml), or mock were added to the lower chambers 2 h later for 30 min. Mouse neutrophils stimulated with 5 μM fMLP were then plated on the top surface of the insert (6×10^6 cells/cm^2) for 30 min. At the end of the incubation period, neutrophils on the top side of the inserts were removed by cotton swabs, and endothelial cells on the other side of the inserts were lysed with SDS-PAGE sample buffer for Western analysis.

Compound	AKT phosphorylation [1]	trans-endothelial electrical resistance (TEER) [1]	difference in TEER between DKO and WT neutrophil co-culture [2]	phospho-AKT elevation by co-cultured MAP3K2/3 DKO neutrophils [3]
OO [H2O2]	stimulates AKT phosphorylation	enhanced trans-endothelial electrical resistance (TEER)	–	–
catalase	–	–	abrogated	abrogated
